This note sets out measurements from patent US20260092061A1, “COMPOUNDS FOR TARGETED PROTEIN DEGRADATION” (Amphista Therapeutics Limited, priority 2022, published 2026).

What is called DC50 is the midpoint of the concentration-degradation curve.

Assay [1] addresses T1, BRD9 (Homo sapiens, UniProt Q9H8M2).
T1 sequence (Q9H8M2 1-597): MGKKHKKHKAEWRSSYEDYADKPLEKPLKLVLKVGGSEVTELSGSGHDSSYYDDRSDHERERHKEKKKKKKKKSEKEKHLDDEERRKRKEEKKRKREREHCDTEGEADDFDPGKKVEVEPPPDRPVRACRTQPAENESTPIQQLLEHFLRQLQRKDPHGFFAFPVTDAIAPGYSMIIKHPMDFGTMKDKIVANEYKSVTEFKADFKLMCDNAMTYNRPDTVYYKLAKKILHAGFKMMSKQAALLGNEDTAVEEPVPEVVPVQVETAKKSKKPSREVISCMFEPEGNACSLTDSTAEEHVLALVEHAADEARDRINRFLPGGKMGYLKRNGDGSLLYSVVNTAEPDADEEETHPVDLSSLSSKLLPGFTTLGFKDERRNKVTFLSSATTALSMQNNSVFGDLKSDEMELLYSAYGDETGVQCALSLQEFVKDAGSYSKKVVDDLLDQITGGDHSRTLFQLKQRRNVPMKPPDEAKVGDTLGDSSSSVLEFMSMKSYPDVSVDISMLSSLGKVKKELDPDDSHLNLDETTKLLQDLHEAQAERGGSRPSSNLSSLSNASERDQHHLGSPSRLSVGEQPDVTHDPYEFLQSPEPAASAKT
The assay is described as follows: Degradation of BRD9 (IF), immunofluorescence in MV4-11 cells, 24 hours (Assay Protocol 2). It is filed as cell-based. Also noted: A suspension of MV4-11 cells (ATCC CRL-9591) was prepared; host or cells: MV4-11. The method in brief: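 % BRD9 remaining, scaled between DMSO (high) and 100 nM CFT-8634 (low) control wells, derives from mean Alexa 647 contrast in central nuclei by high-content imaging. MV4-11 cells had 24 h compound exposure at 37° C. before PFA fixation, Triton permeabilisation and anti-BRD9 E4Q3F immunostaining.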

For assay [2], the target named is T1, BRD9. In words: BRD9 degradation, HiBiT-BRD9 KI HEK293 (LgBiT) cells, NanoGlo Lytic Endpoint assay (Assay Protocol 1). As to conditions: BRD9 degradation; for Dmax / Dmax at 1 µM: HEK293; for Dmax at 1 µM: 1 μM compound at 6 h of treatment, read-out: Assay 1 Dmax. The class given is cell-based. The method in brief:
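HiBiT-tagged BRD9 knock-in HEK293 (LgBiT) cells exposed to compounds for 6 h at 37 °C, 5% CO2. Residual BRD9 measured by HiBiT lytic luminescence. % BRD9 remaining normalised to DMSO-treated cells (high) and no-cell wells (low).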

[3] abbreviates: Assay protocol 2, BRD9 degradation, read-out: DC50.
The mark [4] stands for this setting: MV4-11, Assay protocol 2, BRD9 degradation, read-out: Dmax.
[5] abbreviates: Assay protocol 1, read-out: DC50.
[6] abbreviates: Assay protocol 1, read-out: Dmax.
Setting [7] is: MV4-11, Table 4, BRD9 degradation, determined according to Assay Protocol 2, read-out: Dmax^2.
[8] abbreviates: Table 4, BRD9 degradation, determined according to Assay Protocol 2, read-out: DC50^2.
[9] abbreviates: Table 4, determined according to Assay Protocol 1, read-out: Dmax^1.
Where [10] appears, read: Table 4, determined according to Assay Protocol 1, read-out: DC50^1.
Setting [11] is: MV4-11, 24 h, Table 2, BRD9 degradation (IF), Assay Protocol 2, MV4-11 cells, read-out: Assay 2 DCmax.
Where [12] appears, read: Table 2, BRD9 degradation (IF), Assay Protocol 2, MV4-11 cells, read-out: Assay 2 DC50.
Setting [13] is: Table 2, Assay Protocol 1, 6 h of treatment, read-out: Assay 1 DC50.

For `COc1cc(-c2cn(C)c(=O)c(C)c2C)cc(OC)c1CN(C)Cc1ccc(C2CCCN2C(=O)/C(C#N)=C/C(C)(C)C)cc1` (mixture of isomers) [Compound B34], the DC50 in assay [1] (setting [3]) is 1.25 to 10 nM; in assay [2] (setting [5]) it was 10 to 25 nM. Moreover, the Dmax in assay [1] (setting [4]) and in assay [2] (setting [6]) was 40 to 70% each time.

In the case of `COc1cc(-c2cn(C)c(=O)c(C)c2C)cc(OC)c1CN1CCN(C(=O)[C@@H]2CN(C(=O)/C(C#N)=C/C(C)(C)C)C[C@H]2C2CCCCC2)CC1` [Compound B210], the Dmax in assay [1] (setting [7]) and in assay [2] (setting [9]) was 50 to 70% throughout. The DC50 in assay [1] (setting [8]) and in assay [2] (setting [10]) was 25 to 200 nM throughout.

`COc1cc(-c2cn(C)c(=O)c3cnccc23)cc(OC)c1CN1CCN(Cc2cccc3c2CCN(C(=O)/C(C#N)=C/C2(C)CC2)C3C)CC1` (mixture of isomers) [Compound A26, (E/Z)-2-(5-((4-(2,6-dimethoxy-4-(2-methyl-1-oxo-1,2-dihydro-2,7-naphthyridin-4-yl)benzyl)piperazin-1-yl)methyl)-1-methyl-1,2,3,4-tetrahydroisoquinoline-2-carbonyl)-3-(1-methylcyclopropyl)acrylonitrile]: the Dmax in assay [1] (setting [11]) was in the range of 40 to 70%. Further, the DC50 in assay [1] (setting [12]) was in the range of 25 to 300 nM; in assay [2] (setting [13]) it was 1.25 to 10 nM. The Dmax at 1 µM in assay [2] (Table 2, Assay Protocol 1) is 40 to 70%.

Take `COc1cc(-c2cn(C)c(=O)c(C)c2C)cc(OC)c1CN1CC2CCC(C1)N2Cc1cccc2c1CCN(C(=O)/C(C#N)=C/C(C)(C)C)C2C` (mixture of isomers) [Compound B3, (E/Z)-2-(5-((3-(2,6-dimethoxy-4-(1,4,5-trimethyl-6-oxo-1,6-dihydropyridin-3-yl)benzyl)-3,8-diazabicyclo[3.2.1]octan-8-yl)methyl)-1-methyl-1,2,3,4-tetrahydroisoquinoline-2-carbonyl)-4,4-dimethylpent-2-enenitrile]: the DC50 in assay [1] (setting [3]) and in assay [2] (setting [5]) was 10 to 25 nM in each case. Also, the Dmax in assay [1] (setting [4]) and in assay [2] (setting [6]) was above 75% each time.

As to `CCCC(c1cccc(CCC(=O)N2CCN(Cc3c(OC)cc(-c4cn(C)c(=O)c(C)c4C)cc3OC)CC2)c1)N(C)C(=O)/C(C#N)=C/c1nccs1` (mixture of isomers) [Compound B185, (E/Z)-2-cyano-N-(1-(3-(3-(4-(2,6-dimethoxy-4-(1,4,5-trimethyl-6-oxo-1,6-dihydropyridin-3-yl)benzyl)piperazin-1-yl)-3-oxopropyl)phenyl)butyl)-N-methy-3-(thiazol-2-yl)acrylamide], the DC50 in assay [1] (setting [3]) fell in the range of 1.25 to 10 nM; in assay [2] (setting [5]) it was 10 to 25 nM. The Dmax in assay [1] (setting [4]) is above 75%; in assay [2] (setting [6]), 40 to 70%.

In the case of `COc1cc(-c2cn(C)c(=O)c3cnccc23)cc(OC)c1CN1CCC(N(C)c2cccc3c2CCN(C(=O)/C(C#N)=C/C(C)(C)C)C3C)CC1` (stereo not drawn) [Compound A30], the Dmax in assay [1] (setting [11]) is below 50%. Moreover, the Dmax at 1 µM in assay [2] (Table 2, Assay Protocol 1) lay within 40 to 70%. Also, the DC50 in assay [2] (setting [13]) was in the range of 1.25 to 10 nM.

Take `COc1cc(-c2cn(C)c(=O)c(C)c2C)cc(OC)c1CN1CCN(Cc2cccc3c2CCN(C(=O)/C(C#N)=C/C(C)(C)N2CCN(C4COC4)CC2)C3C)C2(CC2)C1` (mixture of isomers) [Compound B126, (E/Z)-2-(5-((7-(2,6-dimethoxy-4-(1,4,5-trimethyl-6-oxo-1,6-dihydropyridin-3-yl)benzyl)-4,7-diazaspiro[2.5]octan-4-yl)methyl)-1-methyl-1,2,3,4-tetrahydroisoquinoline-2-carbonyl)-4-methyl-4-(4-(oxetan-3-yl)piperazin-1-yl)pent-2-enenitrile]: the DC50 in assay [1] (setting [3]) and in assay [2] (setting [5]) was 1.25 to 10 nM each time. The Dmax in assay [1] (setting [4]) is 70 to 75%; in assay [2] (setting [6]) it was above 75%.

As to `COc1cc(-c2cn(C)c(=O)c(C)c2C)cc(OC)c1CN1CCN(C(=O)/C(C#N)=C/C(C)(C)C)CC12CC2` [BRD9f, (E/Z)-2-(4-(2,6-dimethoxy-4-(1,4,5-trimethyl-6-oxo-1,6-dihydropyridin-3-yl)benzyl)-4,7-diazaspiro[2.5]octane-7-carbonyl)-4,4-dimethylpent-2-enenitrile], the Dmax in assay [1] (setting [7]) and in assay [2] (setting [9]) was 50 to 70% in each case. For the same molecule, the DC50 in assay [1] (setting [8]) and in assay [2] (setting [10]) was below 25 nM each time.

Consider `COc1cc(-c2cn(C)c(=O)c(C)c2C)cc(OC)c1C(=O)N1CCN(Cc2cccc(C3CCCN3C(=O)/C(C#N)=C/C(C)(C)C)c2)CC1` (mixture of isomers) [Compound B46, (E/Z)-2-(2-(3-((4-(2,6-dimethoxy-4-(1,4,5-trimethyl-6-oxo-1,6-dihydropyridin-3-yl)benzoyl)piperazin-1-yl)methyl)phenyl)pyrrolidine-1-carbonyl)-4,4-dimethylpent-2-enenitrile], for which the results for the DC50 in assay [1] (setting [3]) and in assay [2] (setting [5]) were 1.25 to 10 nM and 10 to 25 nM, respectively. For the same molecule, the Dmax in assay [1] (setting [4]) and in assay [2] (setting [6]) was above 75% throughout.

As for `COc1cc(-c2cn(C)c(=O)c(C)c2C)cc(OC)c1CN1CCN(C(=O)[C@@H]2CN(C(=O)/C(C#N)=C/c3nccs3)C[C@H]2c2ccccc2)CC1` [Compound B28], the Dmax was 40 to 70% in assay [1] (setting [4]) and 25 to 40% in assay [2] (setting [6]).

As to `COc1cc(-c2cn(C)c(=O)c(C)c2C)cc(OC)c1CN1CCN(Cc2cccc3c2CCN(C(=O)/C(C#N)=C/C(C)(C)C)C3C)CC1` (mixture of isomers) [Compound A7, (E/Z)-2-(5-((4-(2,6-dimethoxy-4-(1,4,5-trimethyl-6-oxo-1,6-dihydropyridin-3-yl)benzyl)piperazin-1-yl)methyl)-1-methyl-1,2,3,4-tetrahydroisoquinoline-2-carbonyl)-4,4-dimethylpent-2-enenitrile], the Dmax in assay [1] (setting [11]) was in the range of 40 to 70%. The DC50 in assay [1] (setting [12]) lay in the range of 10 to 25 nM; in assay [2] (setting [13]) it was 1.25 to 10 nM. Further, the Dmax at 1 µM in assay [2] (Table 2, Assay Protocol 1) was 40 to 70%.

`COc1cc(-c2cn(C)c(=O)c(C)c2C)cc(OC)c1CN(C)Cc1ccc2c(c1)C(C)N(C(=O)/C(C#N)=C/c1cccc(Br)n1)CC2` (mixture of isomers) [Compound B5, (E/Z)-3-(6-bromopyridin-2-yl)-2-(7-(((2,6-dimethoxy-4-(1,4,5-trimethyl-6-oxo-1,6-dihydropyridin-3-yl)benzyl)(methyl)amino)methyl)-1-methyl-1,2,3,4-tetrahydroisoquinoline-2-carbonyl)acrylonitrile]: the DC50 in assay [1] (setting [3]) was below 1.25 nM; in assay [2] (setting [5]), 1.25 to 10 nM. The Dmax in assay [1] (setting [4]) and in assay [2] (setting [6]) was above 75% throughout.

In the case of `COc1cc(-c2cn(C)c(=O)c3cnccc23)cc(OC)c1CN1CCN(Cc2cccc3c2CCN(C(=O)/C(C#N)=C/c2nccs2)[C@@H]3C)CC1` (single isomer, unassigned) [Compound A14, (E/Z)-2-(5-((4-(2,6-dimethoxy-4-(2-methyl-1-oxo-1,2-dihydro-2,7-naphthyridin-4-yl)benzyl)piperazin-1-yl)methyl)-1-methyl-1,2,3,4-tetrahydroisoquinoline-2-carbonyl)-3-(thiazol-2-yl)acrylonitrile], the Dmax in assay [1] (setting [11]) was in the range of 40 to 70%. For the same molecule, the DC50 in assay [1] (setting [12]) and in assay [2] (setting [13]) was below 1.25 nM each time. For the same molecule, the Dmax at 1 µM in assay [2] (Table 2, Assay Protocol 1) lay within 40 to 70%.

As to `COc1cc(-c2cn(C)c(=O)c(C)c2C)cc(OC)c1CN1CCN(Cc2cccc3c2CCN(C(=O)/C(C#N)=C/C(C)C)C3C)CC1` (mixture of isomers) [Compound A43], in assay [1] (setting [11]), the Dmax was 40 to 70%. Besides, the DC50 in assay [1] (setting [12]) was below 1.25 nM; in assay [2] (setting [13]), 1.25 to 10 nM. For the same molecule, the Dmax at 1 µM in assay [2] (Table 2, Assay Protocol 1) is 70 to 75%.

In the case of `COc1cc(-c2cn(C)c(=O)c(C)c2C)cc(OC)c1CN1CCN(C(=O)c2cccc(C3CCCN3C(=O)/C(C#N)=C/C(C)(C)C)c2)CC1` (mixture of isomers) [Compound B35, (E/Z)-2-(2-(3-(4-(2,6-dimethoxy-4-(1,4,5-trimethyl-6-oxo-1,6-dihydropyridin-3-yl)benzyl)piperazine-1-carbonyl)phenyl)pyrrolidine-1-carbonyl)-4,4-dimethylpent-2-enenitrile], the 50% degradation concentration (DC50) in assay [1] (setting [3]) is 10 to 25 nM; in assay [2] (setting [5]) it was 25 to 1000 nM. Also, the Dmax in assay [1] (setting [4]) and in assay [2] (setting [6]) was above 75% throughout.
